Results reported in ChEMBL document CHEMBL5325443, “Discovery and structure-activity relationship of Morita-Baylis-Hillman adducts as larvicides against dengue mosquito vector, Aedes aegypti (Diptera: Culicidae)” (2023).
Converted amounts (≈) assume the structure as drawn. The source made the active and inactive calls. No cut-off for these calls is given here.

Columns and labels:
Aedes aegypti [1] = assay: Larvicidal activity against fourth instar Aedes aegypti larvae assessed as mortality rate at 100 ug/ml measured after 48 hrs relative to control; type: functional
Aedes aegypti [2] = assay: Larvicidal activity against fourth instar Aedes aegypti larvae assessed as lethal concentration measured after 48 hrs; type: functional
Aedes aegypti [3] = assay: Induction of morphological changes in fourth instar Aedes aegypti larvae assessed as damage in thorax at LC50 concentration measured after 48 hrs by scanning electron microscopic analysis; type: functional
Aedes aegypti [4] = assay: Induction of morphological changes in fourth instar Aedes aegypti larvae assessed as modification in terminal abdomen in 6th to 8th segment at LC50 concentration measured after 48 hrs by scanning electron microscopic analysis; type: functional, organism-based
Aedes aegypti [5] = assay: Induction of morphological changes in fourth instar Aedes aegypti larvae assessed as loss in anal papillae at LC50 concentration measured after 48 hrs by scanning electron microscopic analysis; type: functional, organism-based

How did the mortality at 100 µg/mL (Aedes aegypti [1]) turn out when `C=C(C(=O)OC)C(O)c1ccccc1Cl` (stereo not given) was run?
The mortality at 100 µg/mL was 21.7%.

Which mortality at 100 µg/mL (Aedes aegypti [1]) does the source give for `C=C(C(=O)OC)C(O)c1ccc(Br)cc1` (stereo not given) here?
Its mortality at 100 µg/mL is 51.7%.

For `CC(COc1ccc(Oc2ccccc2)cc1)Oc1ccccn1` (stereo not given) [PYRIPROXYFEN], which LC50 (Aedes aegypti [2]) is on record?
Its LC50 is 1.75 µg/mL (≈ 5.45 µM).

How did the mortality at 100 µg/mL (Aedes aegypti [1]) turn out when `C=C(C(=O)OCC)C(O)c1ccccc1Cl` (stereo not given) was run?
Its mortality at 100 µg/mL is 85%.

What about the LC50 (Aedes aegypti [2]) of the same compound?
The LC50 was 86.7 µg/mL (≈ 360 µM).

`C=C(C(=O)OCC)C(O)c1ccc(OC)cc1` (stereo not given) was tested. Which mortality at 100 µg/mL (Aedes aegypti [1]) did it give?
Its mortality at 100 µg/mL is 21.7%.

With `C=C(C(=O)OC)C(O)c1ccc(Cl)cc1` (stereo not given) as the compound, how does the mortality at 100 µg/mL (Aedes aegypti [1]) read?
The mortality at 100 µg/mL was 81.7%.

And the LC50 (Aedes aegypti [2])?
Its LC50 is 88.2 µg/mL (≈ 389 µM).

For `C=C(C(=O)OC)C(O)c1ccc(F)cc1` (stereo not given), which mortality at 100 µg/mL (Aedes aegypti [1]) is on record?
The mortality at 100 µg/mL was 16.7%.

`CC[C@H]1CCC[C@H](O[C@H]2CC[C@H](N(C)C)[C@@H](C)O2)[C@@H](C)C(=O)C2=C[C@@H]3[C@@H](C=C(C)[C@@H]4C[C@@H](O[C@@H]5O[C@@H](C)[C@H](OC)[C@@H](OC)[C@H]5OC)C[C@@H]34)[C@@H]2CC(=O)O1` [SPINOSYN D] was tested. Which LC50 (Aedes aegypti [2]) did it give?
Its LC50 is 0.02 µg/mL (≈ 0.0268 µM).

Which results are given for `C=C(C(=O)OC)C(O)c1ccc2ccccc2c1` (stereo not given)?
mortality at 100 µg/mL (Aedes aegypti [1]): 88.3%; LC50 (Aedes aegypti [2]): 77.7 µg/mL (≈ 321 µM)

`COP(=S)(OC)Oc1ccc(Sc2ccc(OP(=S)(OC)OC)cc2)cc1` [TEMEFOS] was tested. Which LC50 (Aedes aegypti [2]) did it give?
Its LC50 is 4.25 µg/mL (≈ 9.11 µM).

Which mortality at 100 µg/mL (Aedes aegypti [1]) does the source give for `C=C(C(=O)OCC)C(O)c1ccc([N+](=O)[O-])cc1` (stereo not given) here?
The mortality at 100 µg/mL was 16.7%.

How did the mortality at 100 µg/mL (Aedes aegypti [1]) turn out when `C=C(C(=O)OC)C(O)/C=C/c1ccccc1` (stereo not given) was run?
The mortality at 100 µg/mL was 71.7%.

Which LC50 (Aedes aegypti [2]) does the source give for `CC[C@H]1CCC[C@H](O[C@H]2CC[C@H](NC)[C@@H](C)O2)[C@@H](C)C(=O)C2=C[C@@H]3[C@@H](C=C[C@@H]4C[C@@H](O[C@@H]5O[C@@H](C)[C@H](OC)[C@@H](OC)[C@H]5OC)C[C@@H]34)[C@@H]2CC(=O)O1` here?
Its LC50 is 0.02 µg/mL (≈ 0.0279 µM).

`CC[C@H]1CCC[C@H](O[C@H]2CC[C@H](N(C)C)[C@@H](C)O2)[C@@H](C)C(=O)C2=C[C@@H]3[C@@H](C=C[C@@H]4C[C@@H](O[C@@H]5O[C@@H](C)[C@H](OC)[C@@H](OC)[C@H]5OC)C[C@@H]34)[C@@H]2CC(=O)O1` [SPINOSYN A] was tested. Which LC50 (Aedes aegypti [2]) did it give?
Its LC50 is 0.02 µg/mL (≈ 0.0273 µM).

How did the mortality at 100 µg/mL (Aedes aegypti [1]) turn out when `C=C(C(=O)OC)C(O)c1ccc(C)cc1` (stereo not given) was run?
The mortality at 100 µg/mL was 10%.

How did the mortality at 100 µg/mL (Aedes aegypti [1]) turn out when `C=C(C(=O)OC)C(O)c1ccc(-c2ccccc2)cc1` (stereo not given) was run?
Its mortality at 100 µg/mL is 93.3%.

What about the LC50 (Aedes aegypti [2]) of the same compound?
Its LC50 is 41.4 µg/mL (≈ 154 µM).

And the Activity (Aedes aegypti [3])?
Its Activity is 100%.

What about the Activity (Aedes aegypti [4]) of the same compound?
The Activity was “Active”.

What about the Activity (Aedes aegypti [5]) of the same compound?
Its Activity is “Active”.

`C=C(C(=O)OCC)C(O)c1nccs1` (stereo not given) was tested. Which mortality at 100 µg/mL (Aedes aegypti [1]) did it give?
Its mortality at 100 µg/mL is 10%.

With `C=C(C(=O)OC)C(O)c1cc(OC)c(OC)c(OC)c1` (stereo not given) as the compound, how does the mortality at 100 µg/mL (Aedes aegypti [1]) read?
Its mortality at 100 µg/mL is 16.7%.
